Calls of active or inactive are those of the source. Where a SMILES comes first, the peptide text is derived from it. [ ]: non-standard residue; d: D form. The star is where a group is joined. ξ: configuration not given here. ξIle = CC[C@H](C)C(N)C(=O)O; Prenyl = CC(C)=CC*
Columns and labels:
[1] = tested on: Escherichia coli; experiment: Antibacterial activity against Escherichia coli ATCC 25922 assessed as bacterial growth inhibition at 1 mg/mL preincubated for 30 mins at room temperature followed by incubation at 37 degreeC for 24 hrs by agar disc-diffusion method; assay type: functional, organism-based; settings: time 24.5 hrs
[2] = tested on: Staphylococcus aureus; experiment: Antibacterial activity against Staphylococcus aureus ATCC 29213 assessed as bacterial growth inhibition at 1 mg/mL preincubated for 30 mins at room temperature followed by incubation at 37 degreeC for 24 hrs by agar disc-diffusion method; assay type: functional, organism-based; settings: time 24.5 hrs
[3] = tested on: Dictyostelium discoideum; experiment: Antiamoebic activity against Dictyostelium discoideum assessed as cell viability at 10 uM incubated for 24 hrs by Alamar blue staining based assay; assay type: functional, organism-based
[4] = tested on: HCT-116; experiment: Cytotoxicity against human HCT-116 cells assessed as cell viability at 10 ug/mL incubated for 48 hrs by MTT assay; assay type: functional, cell-based; settings: dose 10.0 µg/ml
[5] = tested on: Bacillus subtilis; experiment: Antibacterial activity against Bacillus subtilis ATCC 6633 assessed as bacterial growth inhibition at 1 mg/mL preincubated for 30 mins at room temperature followed by incubation at 37 degreeC for 24 hrs by agar disc-diffusion method; assay type: functional, organism-based; settings: time 24.5 hrs
[6] = tested on: Acanthamoeba castellanii; experiment: Antiamoebic activity against Acanthamoeba castellanii assessed as cell viability at 10 uM incubated for 24 hrs by Alamar blue staining based assay; assay type: functional, organism-based
[7] = tested on: SH-SY5Y; experiment: Cytotoxicity against human SH-SY5Y cells assessed as cell viability at 10 ug/mL incubated for 48 hrs by MTT assay; assay type: functional, cell-based; settings: dose 10.0 µg/ml
[8] = tested on: Candida albicans; experiment: Antifungal activity against Candida albicans ATCC 10231 assessed as fungal growth inhibition at 1 mg/mL preincubated for 30 mins at room temperature followed by incubation at 37 degreeC for 24 hrs by agar disc-diffusion method; assay type: functional, organism-based; settings: time 24.5 hrs
[9] = tested on: Acanthamoeba polyphaga; experiment: Antiamoebic activity against Acanthamoeba polyphaga assessed as cell viability at 10 uM incubated for 24 hrs by Alamar blue staining based assay; assay type: functional, organism-based
[10] = tested on: Salmonella typhimurium; experiment: Antibacterial activity against Salmonella typhimurium ATCC 25241 assessed as bacterial growth inhibition at 1 mg/mL preincubated for 30 mins at room temperature followed by incubation at 37 degreeC for 24 hrs by agar disc-diffusion method; assay type: functional, organism-based; settings: Salmonella enterica subsp. enterica serovar Typhimurium, time 24.5 hrs
[11] = tested on: HepG2; experiment: Cytotoxicity against human HepG2 cells assessed as cell viability at 10 ug/mL incubated for 48 hrs by MTT assay; assay type: functional, cell-based; settings: dose 10.0 µg/ml

Measured: Activity

CC[C@H](C)C1NC(=O)[C@@H]2CCCN2C(=O)[C@H](Cc2ccc(OCC=C(C)C)cc2)NC(=O)[C@@H]2CCCN2C(=O)[C@H](C(C)C)NC(=O)CNC(=O)[C@H](C(C)C)NC(=O)CNC1=O (stereo partly specified) (cyclo(GVGVPY(Prenyl)P[ξIle]))
inactive: all assays above

Source: ChEMBL document CHEMBL6153036, “Genome-informed Discovery of Monchicamides A-K: Cyanobactins from the Microcoleaceae Cyanobacterium LEGE 16532” (J Nat Prod, 2025)
